Values of other authors, collected in patent US11549142B2, “CETP inhibitors for therapeutic use” (Hoffmann-La Roche Inc., priority 2013, dated 2023).
Like-named read-outs stand apart in the source and are kept apart here.

What was measured:
CETP [1] = target: T1, CETP (Homo sapiens, UniProt P11597); settings: humans; de Grooth et al.; cited from earlier work
T1 construct: host or cells: humans treated with the compound (endogenous plasma CETP)
T1 sequence (P11597 18-493): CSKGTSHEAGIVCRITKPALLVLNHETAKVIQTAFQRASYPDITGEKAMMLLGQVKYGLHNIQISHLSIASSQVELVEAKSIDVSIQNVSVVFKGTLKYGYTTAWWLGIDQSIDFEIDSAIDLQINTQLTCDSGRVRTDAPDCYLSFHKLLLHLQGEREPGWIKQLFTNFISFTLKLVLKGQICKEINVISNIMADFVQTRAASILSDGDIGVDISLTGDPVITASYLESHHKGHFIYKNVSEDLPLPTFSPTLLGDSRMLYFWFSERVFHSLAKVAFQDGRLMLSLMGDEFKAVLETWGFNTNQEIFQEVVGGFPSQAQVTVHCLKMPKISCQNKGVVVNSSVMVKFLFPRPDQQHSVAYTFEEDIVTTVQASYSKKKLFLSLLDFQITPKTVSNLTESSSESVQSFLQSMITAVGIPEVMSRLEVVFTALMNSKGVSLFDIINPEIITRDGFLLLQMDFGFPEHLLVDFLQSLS

CETP [2] = target: T2, CETP (Oryctolagus cuniculus, UniProt P22687); settings: rabbits; Shinkai et al., Kobayashi et al., Okamoto et al.; cited from earlier work
T2 construct: host or cells: rabbits (endogenous plasma CETP)
T2 sequence (P22687 2-497): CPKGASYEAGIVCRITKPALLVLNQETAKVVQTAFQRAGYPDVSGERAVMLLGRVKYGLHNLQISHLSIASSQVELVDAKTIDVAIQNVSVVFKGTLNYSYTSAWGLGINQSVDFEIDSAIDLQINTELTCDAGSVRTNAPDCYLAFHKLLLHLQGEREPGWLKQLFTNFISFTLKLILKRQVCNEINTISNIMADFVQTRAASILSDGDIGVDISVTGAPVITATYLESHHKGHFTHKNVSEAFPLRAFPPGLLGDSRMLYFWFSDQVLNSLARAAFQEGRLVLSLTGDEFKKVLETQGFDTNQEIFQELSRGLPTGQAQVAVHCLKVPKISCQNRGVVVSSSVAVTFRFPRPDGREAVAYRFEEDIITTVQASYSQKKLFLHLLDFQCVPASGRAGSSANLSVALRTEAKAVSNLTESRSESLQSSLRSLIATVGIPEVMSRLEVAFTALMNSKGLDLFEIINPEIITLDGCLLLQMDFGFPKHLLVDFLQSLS

[3] = humans; de Grooth et al.; cited from earlier work
[4] = rabbits, Okamoto et al., cited from earlier work

SMILES: CCC(CC)CC1(C(=O)Nc2ccccc2SC(=O)C(C)C)CCCCC1 [dalcetrapib, thioisobutyric acid S-(2-{[1-(2-ethyl-butyl)-cyclohexanecarbonyl]-amino}-phenyl) ester]
- CETP activity (CETP [1]): inhibitor of CETP activity
- CETP activity (CETP [2]): inhibitor of CETP activity
- LDL cholesterol [3]: decrease LDL cholesterol
- plasma HDL cholesterol [3]: increase plasma HDL cholesterol
- LDL cholesterol [4]: decrease LDL cholesterol
- plasma HDL cholesterol ([4]; Shinkai et al., Kobayashi et al.): increase plasma HDL cholesterol
